Test results: patent US12258360B2, “Compositions and methods for treatment of anticancer-drug resistant cancers” (THE GEORGE WASHINGTON UNIVERSITY, priority 2020, dated 2025)
Counter-ions that a name gives are not always drawn. Like-named read-outs stand apart in the source and are kept apart here.

How the values were obtained:
AN3CA cells = experiment: cell proliferation assay (MTS) in AN3CA cells; type: cell-based, human; settings: 10 μM, 48 h
Protocol: • 1. The experimental steps are as follows: • 1.1 AN3CA cell recovery and culture (MEM medium, 10% serum, 1% double antibody); • 1.2 Passages (passage at a ratio of 1:2); • 1.3 Place 96-well plate when the cell status is good, 1×10^4 Well, culture overnight; • culture medium with 10% defatted serum • 1.4 Adding medicine: diluting the final concentration of the drug with a culture medium to 10 μM, and treating for 48 h at 100 μL/well; • culture medium with 10% defatted serum • 1.5 Addition of 2 μL MTS/well, care taken to prevent bubble formation, 490 nm data after 1-4 h

And-1 [1] = target: T1, And-1 (Homo sapiens, UniProt O75717); experiment: inhibition of And-1 in IGROV1 CR cells; type: cell-based; set-up: endogenous in cells; host or cells: IGROV1 CR; settings: inhibition of And-1, IGROV1 CR cells
T1 sequence (O75717 1-1129): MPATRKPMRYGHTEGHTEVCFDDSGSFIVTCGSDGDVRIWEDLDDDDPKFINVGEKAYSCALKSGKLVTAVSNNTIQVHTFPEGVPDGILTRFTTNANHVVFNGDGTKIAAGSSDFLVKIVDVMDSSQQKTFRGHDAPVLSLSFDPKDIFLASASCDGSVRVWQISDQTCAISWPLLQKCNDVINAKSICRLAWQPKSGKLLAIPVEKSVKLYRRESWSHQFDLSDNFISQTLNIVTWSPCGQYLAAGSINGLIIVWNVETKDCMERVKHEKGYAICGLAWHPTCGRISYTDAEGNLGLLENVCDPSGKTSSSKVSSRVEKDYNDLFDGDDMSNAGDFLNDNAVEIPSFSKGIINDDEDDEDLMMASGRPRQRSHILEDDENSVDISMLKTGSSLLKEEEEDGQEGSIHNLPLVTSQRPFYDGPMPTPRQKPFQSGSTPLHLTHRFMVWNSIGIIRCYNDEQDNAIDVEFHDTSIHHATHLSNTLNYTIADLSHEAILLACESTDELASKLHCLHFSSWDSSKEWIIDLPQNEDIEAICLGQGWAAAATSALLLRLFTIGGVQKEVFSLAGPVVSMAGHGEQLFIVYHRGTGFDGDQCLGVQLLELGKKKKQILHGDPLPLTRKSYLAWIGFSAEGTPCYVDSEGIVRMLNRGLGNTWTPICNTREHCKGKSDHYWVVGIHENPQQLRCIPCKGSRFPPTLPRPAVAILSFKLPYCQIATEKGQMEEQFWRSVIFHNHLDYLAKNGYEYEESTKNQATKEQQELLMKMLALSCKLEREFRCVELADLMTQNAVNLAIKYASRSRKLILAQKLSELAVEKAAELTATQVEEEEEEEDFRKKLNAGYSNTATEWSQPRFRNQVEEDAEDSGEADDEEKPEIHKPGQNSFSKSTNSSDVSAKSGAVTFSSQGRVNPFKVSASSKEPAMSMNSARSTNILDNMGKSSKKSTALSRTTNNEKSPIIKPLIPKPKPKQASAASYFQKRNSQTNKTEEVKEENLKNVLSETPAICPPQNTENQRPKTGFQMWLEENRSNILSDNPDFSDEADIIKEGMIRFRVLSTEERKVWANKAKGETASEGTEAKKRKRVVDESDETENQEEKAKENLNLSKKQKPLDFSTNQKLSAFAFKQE

SREBP target gene SCD-1 = experiment: RT-PCR detection of SCD-1 gene expression in AN3CA cells; type: cell-based, human; settings: 10 μM; for activity of reducing SCD-1 gene expression (in words) / Relative mRNA expression of SCD-1: AN3CA cells; for Relative mRNA expression of SCD-1: 48 h, DMSO = 1
Protocol: • 1. Experimental reagent • 2. The experimental steps are as follows: • 2.1 AN3CA cell recovery and culture (10% serum 1% double antibody in MEM medium); • 2.2 passages (passage at a ratio of 1:2); • 2.3 Place 6 well plates when the cell status is good, 5×10^5Well, culture overnight; • 2.4 adding medicine: diluting the final concentration of the drug with a culture medium to 10 μM, 2 mL/well; • 2.5 adding medicine for 48 h, and then extracting RNA; • 2.5.1 removing the culture medium, adding 0.5 mL/hole Trizol to lyse the cells, repeatedly blowing and beating the cells by a pipette after 5 min, completely lysing the cells, transferring the cells into a 1.5 mL EP tube without RNase, and standing the tube for 5 min; • 2.5.2 adding 200 µl chloroform, shaking rapidly, mixing, standing for 10 min 12000 rpm/15 min; • 2.5.3 carefully taking out the supernatant, transferring the supernatant into an EP tube, adding isopropanol with the same volume, reversing, uniformly mixing, standing for 10 min, and centrifuging at 12000 rpm/10 min; • 2.5.4 removing the supernatant, adding 1 mL of 75% ethanol for washing, centrifuging at 8000 rpm/5 min once, carefully removing the supernatant, standing at room temperature for 10 min to volatilize the ethanol, and dissolving the precipitate with 40 μL of DEPC treated water when the precipitate becomes transparent; • 2.5.5 RNA concentration was measured and DEPC-treated water was diluted to 100 ng/μL • 2.6 reverse transcription: Kit Takara (PrimeScript RT reagent Kit (Perfect Real Time)

And-1 [2] = target: T1, And-1; experiment: inhibition of And-1 in OV90 CR cells; type: cell-based; set-up: endogenous in cells; settings: inhibition of And-1, OV90 CR cells
[3] = target: T2, And-1 protein fused to a luciferase reporter gene (Homo sapiens, UniProt O75717); experiment: quantitative HTS (qHTS) of LOPAC library in HEK293T-And-1-Luc cells (luciferase read-out of And-1 level); type: cell-based; settings: HTS assay
T2 sequence (O75717 1-1129): T1 sequence (O75717 1-1129)
Excerpt: To identify And-1 specific pharmacologic inhibitors, a high-throughput screening (HTS) assay was established to identify small molecules that can inhibit And-1 by inducing its degradation. For this assay, two stable cell lines, a HEK293T-And-1-Luc cell expressing And-1 protein fused to a luciferase reporter gene, and a HEK293T-Luc cell expressing luciferase only were generated (FIG. 13A). HEK293T-And-1-Luc cells allowed for assessment of And-1 protein levels by measuring luciferase activity in a high throughput manner.

And-1 [4] = target: T1, And-1; experiment: immunoblot analysis of And-1 expression in IGROV1 cells; type: cell-based; set-up: endogenous in cells; host or cells: IGROV1 CR; settings: immunoblot, read-out: IC50 for inhibition of And-1 expression
Protocol: The high IC50 of resveratrol compromises its potential clinical application; therefore, resveratrol was used as a lead compound to screen 12 analogs of resveratrol for potent compounds that can inhibit And-1 (FIG. 14). […] To perform immunoblot analyses, cells were first treated with increasing concentrations of the 12 analogs. After treatment, the cells were harvested and then lysed with RIPA buffer protease inhibitor and phosphatase inhibitor cocktail. Protein concentration was determined by the BCA protein assay. Equal amounts of whole cell lysates were separated on sodium dodecyl sulfate polyacrylamide gel electrophoresis (SDS-PAGE) and transferred onto nitrocellulose membranes. Membranes were then incubated in blocking solution (5% non-fat milk in 20 mM TRIS-HCl, 150 mM NaCl, 0.1% Tween-20) (TBST), followed by incubation with the indicated antibodies at 4° C. overnight. The membranes were then washed in TBST and incubated with HRP-conjugated secondary antibodies for 1 hour at room temperature (21° C.±2° C.). Antibody detection was performed with an enhanced chemiluminescence reaction.

[5] = determination 1, read-out: IC50 (μM) 1
[6] = average of 1 and 2, read-out: IC50 (μM) average
[7] = determination 2, read-out: IC50 (μM) 2

Compound	Relative mRNA expression of SCD-1 (SREBP target gene SCD-1)	IC50 [3, 5] [µM]	IC50 [3, 6] [µM]	IC50 [3, 7] [µM]	also measured
OB1OCc2cc(/C=C/c3cc(C(F)(F)F)cc(C(F)(F)F)c3)ccc21 [IV, (E)-5-(3,5-bis(trifluoromethyl)styryl)benzo[c][1,2]oxaborol-1(3H)-ol]	0.42				inhibition of AN3CA cell proliferation (in words) (AN3CA cells): different degrees of inhibition; IC50 (And-1 [1]): 37.6 µM; activity of reducing SCD-1 gene expression (in words) (SREBP target gene SCD-1): better than those of BF-175; IC50 (And-1 [2]): 57.9 µM
CC[C@@]1(O)C(=O)OCc2c1cc1n(c2=O)Cc2cc3ccccc3nc2-1 [(S)-(+)-Camptothecin]		0.73			IC50 (μM) 2 ([3]; determination 2): inactive
COc1cccc(/C=C/c2ccc3c(c2)COB3O)c1 [XII, (E)-5-(3-methoxystyryl)benzo[c][1,2]oxaborol-1(3H)-ol]	0.62				IC50 (And-1 [1]): 34.1 µM; IC50 (And-1 [2]): 37.4 µM
OB1OCc2cc(/C=C/c3cc(F)cc(C(F)(F)F)c3)ccc21 [V]	0.72				
C/C=C(/C)C(=O)O[C@H]1C(C)=C2[C@H]([C@@H]1OC(=O)CCCCCCC)[C@@](C)(OC(C)=O)C[C@H](OC(=O)CCC)[C@@]1(O)[C@H]2OC(=O)[C@@]1(C)O [Thapsigargin]		13.3	6.95	0.63	
c1ccc2c(c1)[I+]c1ccccc1-2 [Diphenyleneiodonium chloride]		0.84	0.43	0.03	
Oc1ccc(C=Cc2cc(O)cc(O)c2)cc1 [Resveratrol]					DC50 (And-1 [4]): 16.7 µM; DC50 [3, 6]: 18.9 µM; DC50 [3, 5]: 14.9 µM; DC50 [3, 7]: 22.9 µM
C=CCc1cccc(/C=N/NC(=O)CN2CCN(Cc3ccccc3)CC2)c1O [PAC-1]		18.8	21.3	23.8	
OB1OCc2cc(/C=C/c3ccccc3)ccc21 [XIII, (E)-5-styrylbenzo[c][1,2]oxaborol-1(3H)-ol]	0.71				IC50 (And-1 [1]): 41 µM; IC50 (And-1 [2]): 45.6 µM
CCN(CC)CCOc1ccc(Nc2ncc3cc(-c4c(Cl)cccc4Cl)c(=O)n(C)c3n2)cc1 [PD-166285 hydrate]					DC50 [3, 6]: 3.03 µM; DC50 [3, 5]: 3.33 µM; DC50 [3, 7]: 2.73 µM
Nc1ccn([C@@H]2O[C@H](CO)[C@@H](O)C2(F)F)c(=O)n1 [Gemcitabine hydrochloride]		0.02			IC50 (μM) 2 ([3]; determination 2): inactive
OB1OCc2cc(/C=C/c3cccc(F)c3)ccc21 [IX, (E)-5-(3-fluorostyryl)benzo[c][1,2]oxaborol-1(3H)-ol]	0.72				
OB1OCc2cc(/C=C/c3cccc(Cl)c3)ccc21 [X, (E)-5-(3-chlorostyryl)benzo[c][1,2]oxaborol-1(3H)-ol]	0.56				IC50 (And-1 [1]): 19.2 µM; inhibitory effect on Srebp (SREBP target gene SCD-1; human endometrial cancer AN3CA cells): high inhibitory effect; IC50 (And-1 [2]): 20.6 µM
O=C1C(SCCO)=C(SCCO)C(=O)c2ccccc21 [NSC 95397]		11.2	9.42	7.68	
OB1OCc2cc(/C=C/c3ccccc3C(F)(F)F)ccc21 [VI, (E)-5-(2-(trifluoromethyl)styryl)benzo[c][1,2]oxaborol-1(3H)-ol]	1.03				
OB1OCc2cc(Cl)ccc21 [travaborole, reference compound]	1.08				activity of reducing SCD-1 gene expression (in words) (SREBP target gene SCD-1): do not have the activity of reducing the expression of SCD-1 gene
CC[n+]1c(/C=C/C=C2/N(C)c3ccccc3C2(C)C)sc2ccccc21 [AC-93253 iodide]		1.09	0.76	0.44	
COc1cc2c(cc1O)CC[C@@H]1[C@@H]2CC[C@]2(C)[C@@H](O)CC[C@@H]12 [2-methoxyestradiol]		1.67			IC50 (μM) 2 ([3]; determination 2): inactive
CC[C@@]1(O)C(=O)OCc2c1cc1n(c2=O)Cc2cc3c(CN(C)C)c(O)ccc3nc2-1 [Topotecan hydrochloride hydrate]					DC50 [3, 5]: 0.61 µM; IC50 (μM) 2 ([3]; determination 2): inactive
CNc1ccc2oc(C[C@H]3O[C@@]4(CC[C@H]3C)O[C@H]([C@H](C)C(=O)c3ccc[nH]3)[C@H](C)C[C@H]4C)nc2c1C(=O)O [Calcimycin]		6.1	8.32	10.5	
OB1OCc2cc(/C=C/c3ccc(C(F)(F)F)cc3)ccc21 [VII, (E)-5-(4-(trifluoromethyl)styryl)benzo[c][1,2]oxaborol-1(3H)-ol]	1.07				
COCCOC(=O)C1=C(C)NC(C)=C(C(=O)OC/C=C/c2ccccc2)C1c1cccc([N+](=O)[O-])c1 (centres unmarked) [Cilnidipine]		22.9	21.1	19.3	
Cc1cccc(/C=C/c2ccc3c(c2)COB3O)c1 [XI, (E)-5-(3-methylstyryl)benzo[c][1,2]oxaborol-1(3H)-ol]					IC50 (And-1 [1]): 32.9 µM; IC50 (And-1 [2]): 34.3 µM
